In paper PMC3876047, “Self/Co-Assembling Peptide, EAR8-II, as a Potential Carrier for a Hydrophobic Anticancer Drug Pirarubicin (THP)—Characterization and in-Vitro Delivery” (International Journal of Molecular Sciences, 2013):

Key:
[1] = Dynamic light scattering, particle size of peptide and peptide-drug complexes; assay type: physicochemical; conditions: DLS, intensity-based, aqueous solution, EAR8-II 0.5 mg/mL, 25 °C, no drug
Procedure: EAR8-II peptide solutions in the concentration range of 0.05–2 mg/mL (0.0547–2.188 mM) were prepared by dissolving peptide lyophilized powder in Milli-Q (18.2 MΩ) water (EMD Millipore, Billerica, MA, USA) followed by bath sonicating for 10 min. Freshly prepared peptide solutions were added to THP to reach fixed [THP] concentrations at 0.1 mg/mL (0.159 mM), followed by mechanical stirring at 900 rpm for 24 h.
The particle size distribution and zeta potential of peptide-drug complexes at different peptide-to-drug ratios were measured by a Zetasizer Nano ZS (Malvern Instruments, Worcestershire, UK). Appropriate settings, viscosity, refractive index, and dispersant solvent were set for each measurement at 25 °C. A small 50 μL volume of the sample was transferred from the vial to a disposable solvent resistant micro cuvette (ZEN0040, Malvern, Worcestershire, UK). The scattered light intensities of the samples were collected at an angle of 173°. This was known as backscatter detection, i.e., the relationship between the size of a particle and its scattered light intensity obtained with the multimodal Contin algorithm, which was provided in the Dispersion Technology Software 5.1 package (Malvern Instruments, Worcestershire, UK).

[2] = Tapping mode atomic force microscopy of nanostructure; assay type: physicochemical; conditions: tapping mode AFM, EAR8-II 0.5 mg/mL
Procedure: Figure 2. Nanostructure of (A) EAR8-II and (C) EAR8-II-THP complex by tapping mode atomic force microscopy; Intensity-based particle size distribution of (B) EAR8-II and (D) EAR8-II-THP complex in aqueous solution by dynamic light scattering. EAR8-II concentration is 0.5 mg/mL, and THP concentration is 0.1 mg/mL.

[3] = Solubilisation of THP in water and EAR8-II solution (appearance); assay type: physicochemical; conditions: visual appearance
Procedure: To determine a suitable concentration of required EAR8-II for THP encapsulation, different concentrations of EAR8-II, in a range of 0.05–1.0 mg/mL, were prepared and combined with THP at 0.1 mg/mL concentration in aqueous solution. Solubility of THP in water is very low, whereas it can be dissolved and stabilized in an EAR8-II solution at a minimum concentration of 0.2 mg/mL. […] However, at higher EAR8-II concentrations (0.2–0.6 mg/mL), THP molecules were fully dissolved, and consequently, a clear-transparent solution of the peptide-drug complexes formed. At much higher peptide concentrations (above 0.6 mg/mL), THP molecules were still fully soluble, but the excess amount of EAR8-II produced a cloudier solution, with clearly a higher particle size distribution. Note that amphiphilic features of EAR8-II, including the ionic and hydrophobic residues, stimulated binding with hydrophobic molecules of THP through protonation of NH2 to NH3^+ in THP molecules and hydrophobic interactions between alanine residues and aromatic rings in the THP structure. […] Both ionic and hydrophobic interactions are the possible main interactions of EAR8-II and THP, i.e., the protonation of THP in an acidic EAR8-II solution and hydrophobic interaction between THP and hydrophobic side chains of EAR8-II are the dominant forces in complexation of EAR8-II-THP. […]

[4] = Steady-state THP fluorescence, encapsulation of THP by EAR8-II; assay type: physicochemical; conditions: [THP] = 0.1 mg/mL, fluorescence excitation 480 nm / emission 590 nm, plateau of intensity
Procedure: The amount of protonated THP in EAR8-II is also determined by measuring the fluorescence intensity of the excitation and emission by THP at different EAR8-II concentrations. Protonated THP absorbs light at 480 nm, and emits light at 590–600 nm. Fluorescence intensity for both the excitation and emission spectra is proportional to the concentration of protonated THP stabilized in the peptide solution. Although the initial concentration of THP was constant in each complex, the amount of protonated THP varied due to the dependency of the THP encapsulation efficiency on peptide concentration.
The THP fluorescence emission spectra were acquired on a photon technology international spectrafluorometer (Type QM4-SE, London, ON, Canada) with a continuous xenon lamp as the light source. The emission spectra were collected in the wavelength range of 500–800 nm, while samples were excited at 480 nm. The maximum emission peak of THP is at a wavelength of 590–600 nm. […] The fluorescence intensity at 590 and 480 nm for emission and excitation were obtained by taking the average of twenty points of fluorescence intensity, respectively. Each fluorescence spectrum was divided by lamp intensity to account for eventual lamp fluctuations. The normalized fluorescence intensity for both emission and excitation spectra at 590 and 480 nm was plotted for various peptide-to-drug ratios.

[5] = system: A549 cells; assay: Cellular toxicity, CCK-8 assay, A549; assay type: cell-based, Human; conditions: 24 h
Procedure: (§1) All cell lines, purchased from Cedarlane (Burlington, ON, Canada), were used in the current study and cultured in their respective culture medium as follows: Human Cervical Adenocarcinoma: HeLa (CCL-2) in Eagle's Minimum Essential Medium (EMEM) (ATCC30-2003), Human lung cancer: A549 (CCL-185) in F-12 medium (ATCC30-2004). All medium solutions were prepared with 10% fetal bovine serum (FBS-[…]). Two human cancer cell lines, with 10^4 cells per well concentrations, were seeded in 96-well plates, followed by treatment with different peptide-drug complex ratios for 24 h. Cellular-toxicity experiments were performed with sensitive colorimetric assay called Cell counting kit-8 (CCK-8) (Dojindo Molecular Technologies, Inc. Burlington, ON, Canada). CCK-8 contains highly water-soluble tetrazolium salt (WST-8), which is reduced by dehydrogenase activities in cells to give the yellow color of the formazan dye, which is soluble in culture media. The amount of formazan dye is measured by absorption (O.D.) at 450 nm, which is directly proportional to the number of living cells.

[6] = system: HeLa cells; assay: Cellular toxicity, CCK-8 assay, HeLa; assay type: cell-based, Human; conditions: 24 h
Procedure: as §1

| Compound | hydrodynamic diameter of aggregates [1] | average height of self-assembled fibres [2] | average width of self-assembled fibres [2] | minimum EAR8-II concentration at which THP is dissolved and stabilized ([3]; aqueous solution, [THP] = 0.1 mg/mL, stirring at 900 rpm 24 h) | minimum concentration of peptide required to fully encapsulate THP [4] | solubility of THP in water ([3]; water, no peptide, THP 0.1 mg/mL, stirring 24 h) | cellular viability ([5]; A549, THP at 38 μM in water, no peptide) | cellular toxicity in absence of peptide ([5]; A549, THP control without peptide) | cellular viability ([6]; THP at 38 μM in water, no peptide) | cellular toxicity in absence of peptide ([6]; THP control without peptide) |
| --- | --- | --- | --- | --- | --- | --- | --- | --- | --- | --- |
| Ac-AEAEARAR-NH2 [EAR8-II, Ac-AEAEARAR-NH2] | ~ 500 nm | 15 nm | 10 nm | 0.2 mg/mL | ~ 0.5 mg/mL |  |  |  |  |  |
| COc1cccc2c1C(=O)c1c(O)c3c(c(O)c1C2=O)C[C@@](O)(C(=O)CO)C[C@@H]3O[C@H]1C[C@H](N)[C@H](O[C@@H]2CCCCO2)[C@H](C)O1 [THP, 4-O-tetrahydropyranyladriamycin] |  |  |  |  |  | very low | 64.9 ± 6.4% | non-significant cellular toxicity | 29.58 ± 3.69% | non-significant cellular toxicity |
